The source of these data is ChEMBL document CHEMBL4020782, “Design, synthesis and biological evaluation of 4-piperazinyl-containing Chidamide derivatives as HDACs inhibitors” (Bioorg Med Chem Lett, 2017).

In series [1] the target is T1, Histone deacetylase 1 (Homo sapiens, UniProt Q13547). The series is described as follows: Inhibition of recombinant human HDAC1 using a fluorogenic substrate at 10 uM by fluorescence method.
Series [2] deals with T1, Histone deacetylase 1. In words: Inhibition of recombinant human HDAC1 using a fluorogenic substrate at 1 uM by fluorescence method.
The test system of series [3] is HCT-116. The series is described as follows: Antiproliferative activity against human HCT116 cells after 48 to 72 hrs by MTT assay. The format is functional, cell-based.
For another series, the system named is A549. The series is described as follows: Antiproliferative activity against human A549 cells after 48 to 72 hrs by MTT assay. In kind it is functional, cell-based. A general note: Formazan colour is commonly taken as a measure of viable cells.
Another series concerns K562. The series is described as follows: Antiproliferative activity against human K562 cells after 48 to 72 hrs by MTT assay. The format is functional, cell-based.
Another series relates to MRC5. In words: Antiproliferative activity against human MRC5 cells after 48 to 72 hrs by MTT assay. In kind it is cell-based.
Series [4] concerns PC-3. In words: Antiproliferative activity against human PC3 cells after 48 to 72 hrs by MTT assay. In kind it is functional, cell-based.
In series [5] the target is T1, Histone deacetylase 1. In words: Inhibition of recombinant human HDAC1 using a fluorogenic substrate by fluorescence method.
The target of series [6] is T1, Histone deacetylase 1. The series is described as follows: Inhibition of recombinant human HDAC1 expressed in Baculovirus insect cell expression system using [3H]-metabolically labeled acetylated histone substrate after 30 mins by scintillation counting.
Series [7] relates to PC-3. The series is described as follows: Antitumor activity against human PC3 cells xenografted in nude mouse assessed as tumor growth inhibition at 100 mg/kg, ig administered 7 days per week for 3 weeks. In kind it is functional. Particulars: PC-3, po, read-out: TGI. Background: Xenograft models place foreign cells or tissue in a host animal.
The nature of series [8]: Volume of distribution at steady state in Sprague-Dawley rat at 2 mg/kg, iv administered as single dose by HPLC-MS method. The format is ADME, organism-based. As to conditions: in vivo, read-out: Vdss.
Series [9] in a line: Terminal half life in Sprague-Dawley rat at 2 mg/kg, iv administered as single dose by HPLC-MS method. Particulars: in vivo, read-out: beta t1/2 (converted). The format is ADME, organism-based.
In series [10] the test system is HCT-116. The series is described as follows: Antitumor activity against human HCT116 cells xenografted in mouse assessed as tumor growth inhibition at 50 mg/kg, po daily for 21 days. In kind it is functional. Particulars: HCT-116, po, 504 h, read-out: TGI.
Series [11] in a line: AUC in Sprague-Dawley rat at 10 mg/kg, po administered as single dose by HPLC-MS method. In kind it is ADME, organism-based. As to conditions: in vivo.
Series [12] can be described thus: Tmax in Sprague-Dawley rat at 10 mg/kg, po administered as single dose by HPLC-MS method. In kind it is ADME, organism-based. As to conditions: in vivo.
Series [13] deals with HCT-116. In words: Antitumor activity against human HCT116 cells xenografted in po dosed mouse assessed as tumor growth inhibition administered daily for 21 days. In kind it is functional, organism-based.
Series [14] deals with HCT-116. In words: Antitumor activity against human HCT116 cells xenografted in mouse assessed as tumor growth inhibition at 25 mg/kg, po daily for 21 days. As to conditions: HCT-116, po, 504 h, read-out: TGI. The format is functional.
Series [15] in a line: Cmax in Sprague-Dawley rat at 10 mg/kg, po administered as single dose by HPLC-MS method. In kind it is ADME, organism-based. Details: dose 10 mg/kg, route oral. As to conditions: in vivo.
A short description of series [16]: Oral bioavailability in Sprague-Dawley rat at 10 mg/kg administered as single dose by HPLC-MS method. In kind it is ADME, organism-based. As to conditions: in vivo.
Series [17] deals with Mus musculus. The series is described as follows: Toxicity in mouse xenografted with HCT116 cells assessed as weight loss at 25 mg/kg, po daily for 21 days. The format is organism-based. Particulars: in vivo, 504 h.
The subject of series [18] is Mus musculus. The series is described as follows: Toxicity in mouse xenografted with HCT116 cells assessed as weight loss at 100 mg/kg, po daily measured for 12 days. In kind it is organism-based. As to conditions: in vivo, 288 h.
The nature of series [19]: Clearance in Sprague-Dawley rat at 2 mg/kg, iv administered as single dose by HPLC-MS method. In kind it is ADME, organism-based. As to conditions: in vivo.
Series [20] has as its system Mus musculus. In words: Toxicity in mouse xenografted with HCT116 cells assessed as weight loss at 50 mg/kg, po daily for 21 days. As to conditions: in vivo, 504 h. In kind it is organism-based.
Series [21] deals with Voltage-gated inwardly rectifying potassium channel KCNH2 (Homo sapiens, UniProt Q12809). In words: Inhibition of recombinant human ERG expressed in HEK293 cells after 9 mins by patch clamp method. (In general: Patch clamp records ionic current or voltage across a cell membrane.)
Chain of Voltage-gated inwardly rectifying potassium channel KCNH2 (Q12809 whole entry): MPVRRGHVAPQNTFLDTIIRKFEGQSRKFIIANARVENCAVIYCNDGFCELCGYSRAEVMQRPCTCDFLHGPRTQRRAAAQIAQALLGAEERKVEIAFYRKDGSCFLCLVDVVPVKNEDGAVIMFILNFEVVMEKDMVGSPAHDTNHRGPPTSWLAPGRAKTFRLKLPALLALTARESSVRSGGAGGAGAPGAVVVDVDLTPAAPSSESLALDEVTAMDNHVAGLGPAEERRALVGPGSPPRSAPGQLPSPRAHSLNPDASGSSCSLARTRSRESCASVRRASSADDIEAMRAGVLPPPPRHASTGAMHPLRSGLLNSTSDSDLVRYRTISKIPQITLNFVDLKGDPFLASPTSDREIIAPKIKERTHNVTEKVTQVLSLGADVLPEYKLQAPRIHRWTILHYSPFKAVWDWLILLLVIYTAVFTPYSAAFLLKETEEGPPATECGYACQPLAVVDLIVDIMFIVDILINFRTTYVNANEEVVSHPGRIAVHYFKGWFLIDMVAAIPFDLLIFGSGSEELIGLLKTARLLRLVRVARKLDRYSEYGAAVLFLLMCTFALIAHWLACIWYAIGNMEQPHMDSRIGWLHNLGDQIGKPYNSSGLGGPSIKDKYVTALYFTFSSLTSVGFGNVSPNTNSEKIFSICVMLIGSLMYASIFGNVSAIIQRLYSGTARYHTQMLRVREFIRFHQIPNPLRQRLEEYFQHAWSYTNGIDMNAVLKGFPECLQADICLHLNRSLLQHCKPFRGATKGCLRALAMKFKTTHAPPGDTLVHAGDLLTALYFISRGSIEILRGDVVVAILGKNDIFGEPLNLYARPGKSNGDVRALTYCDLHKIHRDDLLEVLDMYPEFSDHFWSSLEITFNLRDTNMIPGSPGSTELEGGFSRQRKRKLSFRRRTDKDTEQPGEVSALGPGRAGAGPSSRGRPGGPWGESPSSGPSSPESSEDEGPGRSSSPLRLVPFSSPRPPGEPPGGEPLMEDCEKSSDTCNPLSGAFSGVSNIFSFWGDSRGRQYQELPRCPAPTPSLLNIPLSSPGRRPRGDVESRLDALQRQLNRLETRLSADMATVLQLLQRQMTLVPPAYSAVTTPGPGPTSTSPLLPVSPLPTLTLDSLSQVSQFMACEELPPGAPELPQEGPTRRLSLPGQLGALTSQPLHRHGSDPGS
Series [22] concerns HCT-116. In words: Antitumor activity against human HCT116 cells xenografted in mouse assessed as tumor growth inhibition at 100 mg/kg, po daily for 21 days. The format is functional. Particulars: HCT-116, po, 504 h, read-out: TGI.

T1 sequence (Q13547 whole entry): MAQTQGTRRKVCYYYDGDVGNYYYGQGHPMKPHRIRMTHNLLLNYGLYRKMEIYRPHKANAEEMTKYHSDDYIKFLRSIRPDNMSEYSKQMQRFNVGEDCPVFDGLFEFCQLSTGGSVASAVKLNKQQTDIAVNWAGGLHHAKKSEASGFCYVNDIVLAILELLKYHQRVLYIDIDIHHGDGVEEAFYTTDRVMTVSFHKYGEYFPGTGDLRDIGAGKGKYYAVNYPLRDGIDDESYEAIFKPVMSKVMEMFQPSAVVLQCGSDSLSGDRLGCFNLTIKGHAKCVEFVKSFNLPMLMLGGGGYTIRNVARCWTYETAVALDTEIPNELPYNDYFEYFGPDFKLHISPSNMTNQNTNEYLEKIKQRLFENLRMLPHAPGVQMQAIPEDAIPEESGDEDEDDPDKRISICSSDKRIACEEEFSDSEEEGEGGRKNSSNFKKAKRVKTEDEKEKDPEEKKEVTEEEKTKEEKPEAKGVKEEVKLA

As for `Nc1cc(F)ccc1NC(=O)c1ccc(N2CCN(C(=O)/C=C/c3ccc4c(c3)OCO4)CC2)cc1`, the inhibition came to 53.4% at Histone deacetylase 1 [1] and 18% on Histone deacetylase 1 [2].

For `Nc1ccccc1NC(=O)c1ccc(N2CCN(C(=O)/C=C/c3ccc(F)cc3)CC2)cc1`, the inhibition at Histone deacetylase 1 [1] was determined as 79%; at Histone deacetylase 1 [2], 52%. The IC50 in the series on HCT-116 [3] is 1980 nM; in the series on A549, 811 nM; with K562, 1100 nM; with MRC5, above 30000 nM; in the series with PC-3 [4] it was 2140 nM; at Histone deacetylase 1 [5], 983 nM.

With `Nc1ccccc1NC(=O)c1ccc(N2CCN(C(=O)/C=C/c3ccccc3)CC2)cc1`, the results for the inhibition on Histone deacetylase 1 [1] and at Histone deacetylase 1 [2] were 66.8% and 34.3%, respectively.

For the compound `COc1cc(/C=C/C(=O)N2CCN(c3ccc(C(=O)Nc4ccccc4N)cc3)CC2)cc(OC)c1OC`, the figures for the inhibition on Histone deacetylase 1 [1] and on Histone deacetylase 1 [2] were 60.5% and 21.8%, respectively.

`Nc1cc(F)ccc1NC(=O)c1ccc(N2CCN(C(=O)/C=C/c3ccc(F)cc3)CC2)cc1`: the inhibition at Histone deacetylase 1 [1] came out at 58.8%; at Histone deacetylase 1 [2], 36%.

Take `Nc1ccccc1NC(=O)c1ccc(N2CCN(C(=O)/C=C/c3ccc4c(c3)OCO4)CC2)cc1`: the inhibition stood at 75.5% on Histone deacetylase 1 [1] and 49.6% at Histone deacetylase 1 [2].

Turning to `Nc1ccc(F)cc1NC(=O)c1ccc(CNC(=O)/C=C/c2cccnc2)cc1`, the inhibition at Histone deacetylase 1 [1] was 81.3%; at Histone deacetylase 1 [2] it was 55.1%. Besides, the IC50 was 202 nM with HCT-116 [3]; 665 nM in the series on A549; 975 nM in the series on K562; above 30000 nM with MRC5; 2090 nM with PC-3 [4].

As to `Nc1ccccc1NC(=O)c1ccc(N2CCN(C(=O)/C=C/c3cccnc3)CC2)cc1`, the inhibition at Histone deacetylase 1 [1] amounted to 53.8%; on Histone deacetylase 1 [2] it was 18.1%.

`COc1ccc(/C=C/C(=O)NCc2ccc(C(=O)Nc3ccncc3N)cc2)cc1`: the IC50 at Histone deacetylase 1 [6] worked out at 3300 nM. Further, the inhibition in vivo at 100 mg/kg in the series on PC-3 [7] worked out at 39%.

`Nc1cc(F)ccc1NC(=O)c1ccc(N2CCN(C(=O)/C=C/c3cccnc3)CC2)cc1`: the inhibition on Histone deacetylase 1 [1] was 19.2%; at Histone deacetylase 1 [2], 4.71%.

As to `COc1cccc(/C=C/C(=O)N2CCN(c3ccc(C(=O)Nc4ccccc4N)cc3)CC2)c1`, the inhibition on Histone deacetylase 1 [1] is 66.9%; at Histone deacetylase 1 [2], 45.3%.

For `COc1ccc(/C=C/C(=O)N2CCN(c3ccc(C(=O)Nc4ccccc4N)cc3)CC2)cc1OC`, the results for the inhibition on Histone deacetylase 1 [1] and on Histone deacetylase 1 [2] were 79.2% and 46.5%, respectively.

Take `Cc1ccc(/C=C/C(=O)N2CCN(c3ccc(C(=O)Nc4ccccc4N)cc3)CC2)cc1`: the inhibition on Histone deacetylase 1 [1] stood at 94.2%; at Histone deacetylase 1 [2] it was 56.3%. Besides, in [8], the Vd was found to be 0.11 L/kg. In addition, the half-life in series [9] is 64.2 min. Also, in the series with HCT-116 [10], the inhibition in vivo at 50 mg/kg is 55.1%. Besides, the AUC in series [11] was 8910 ng·h/mL. Also, the Tmax in series [12] was 25.8 min. In the series on HCT-116 [13], the TGI entry was “Dose-dependent effect”. Moreover, the inhibition in vivo at 25 mg/kg in the series on HCT-116 [14] was 42.4%. In addition, the IC50 in the series on HCT-116 [3] is 69 nM; in the series with A549, 135 nM; in the series on K562, 4860 nM; in the series with MRC5, above 30000 nM; in the series on PC-3 [4], 3960 nM; at Histone deacetylase 1 [5] it was 798 nM. The IC50 in series [21] amounted to 27100 nM. In [15], this compound came in with a Cmax of 2510 ng/mL. This compound displayed a bioavailability in [16] of 36.3%. In addition, the Activity is listed as below 5% with Mus musculus [17], 19.2% in the series on Mus musculus [18] and 11.3% in the series on Mus musculus [20]. In series [19], this compound had a clearance of 7.5 mL/min/kg. For the same compound, the inhibition in vivo at 100 mg/kg in the series on HCT-116 [22] is 76.3%.

On to `Cc1ccc(/C=C/C(=O)N2CCN(c3ccc(C(=O)Nc4ccc(F)cc4N)cc3)CC2)cc1`, for which the inhibition on Histone deacetylase 1 [1] came out at 64.3%; on Histone deacetylase 1 [2], 17.4%.

As to `COc1ccc(/C=C/C(=O)N2CCN(c3ccc(C(=O)Nc4ccccc4N)cc3)CC2)cc1`, the inhibition on Histone deacetylase 1 [1] was found to be 87.8%; at Histone deacetylase 1 [2], 50.2%. Moreover, the half-inhibitory concentration (IC50) is 765 nM with HCT-116 [3]; 530 nM in the series with A549; 2960 nM in the series with K562; above 30000 nM with MRC5; 8710 nM in the series with PC-3 [4]; 903 nM on Histone deacetylase 1 [5]. In addition, the IC50 in series [21] is 25100 nM.

For orientation: inhibition means the relative decrease from the control value, in per cent. One may read the IC50 as the concentration that inhibits the measured activity by half. Broadly, the AUC is the area under the concentration-time curve, a measure of exposure. Read a high AUC as more exposure. Usually Tmax stands for the time from dosing to the highest level. What is called Cmax is the peak of the concentration-time curve. Usually bioavailability stands for dose-corrected exposure relative to a reference, in per cent. By clearance is commonly meant the volume of plasma or blood freed of the substance per unit of time. A low value points to a low capacity for elimination.
